15 compounds from patent EP0246061A2, “A benzoylurea derivative and its production and use” (SUMITOMO CHEMICAL COMPANY, LIMITED, priority 1986, dated 1987) can be followed below.

Read-outs that look alike come from different tables or passages of the source.

Holding throughout (assay type): in vivo
Assay [1] deals with common mosquito (Culex pipiens pallens). Nature of the assay: Emergence inhibition test on last instar larvae of common mosquito in aqueous dilute solution (Test example 1). The settings on record: active ingredient concentration 3.5 ppm in water; 20 last instar larvae; bred until emergence; two replications. The protocol: The emulsifiable concentrates of the following present compounds prepared according to Formulation example 1 were each diluted with water so that the active ingredient concentration was 3.5 ppm. Thereafter, 100 ml of the aqueous dilute solution thus obtained was put in a 180-ml polyethylene cup, and 20 last instar larvae of common mosquito (Culex pipiens pallens) were liberated therein. The larvae were bred on a bait until emergence to obtain an emergence inhibitory ratio (two replications).

Assay [2] deals with diamond-back moth (Plutella xylostella) of a field strain. Kind of assay: Emergence inhibition test on third instar larvae of diamond-back moth, cabbage leaf dipping (Test example 4). To be noted: 200,000-fold dilution (0.5 ppm); cabbage leaf dipped 1 minute; ten third instar larvae; after nine days; corrected against untreated plot; two replications. The protocol: A circular cabbage leaf of 9.0 cm in diameter was dipped for 1 minute in the 200,000-fold aqueous dilute solutions each (corresponding to 0.5 ppm) of emulsifiable concentrates prepared from the following present compounds and controls according to Formulation example 1. After air-drying, the leaf was put in a polyethylene cup of 11 cm in diameter in which a filter paper was placed on the bottom, and ten third instar larvae of diamond-back moth (Plutella xylostella) of a field strain were liberated therein. After nine days, the number of emergence was examined to obtain an emergence inhibitory ratio (two replications).

In assay [3] the test system is rice stem borer (Chilo suppressalis). Nature of the assay: Mortality test on 10-day old larvae of rice stem borer on treated artificial diet (Test example 3). The settings on record: 192 h, 67,000-fold dilution (1.5 ppm), 1 ml on 5 g artificial diet, ten 10-day old larvae, after eight days, two replications. An excerpt: Then, ten 10-day old larvae of rice stem borer were liberated therein. After eight days, the dead and alive were examined to obtain mortality (two replications).

Assay [4] concerns tobacco cutworm (Spodoptera litura). Kind of assay: Mortality test on fourth instar larvae of tobacco cutworm on treated artificial diet (Test example 2). To be noted: 144 h; for mortality at 0.5 ppm: read-out: Concentration and mortality (%) 0.5 ppm; for mortality at […]: in Nicotiana tabacum, read-out: Concentration and mortality (%) […], 1.5 ppm, 2 ml on 13 g artificial diet, ten fourth instar larvae, after six days, two replications. The protocol:
The emulsifiable concentrates of the following present compounds and controls prepared according to Formulation example 1 were each diluted with water to a prescribed concentration, and 2 ml of the aqueous dilute solution thus obtained was applied onto 13 g of artificial diet for tobacco cutworm (Spodoptera litura) which were then put in a polyethylene cup of 11 cm in diameter. Then, ten fourth instar larvae of tobacco cutworm were liberated therein. After six days, the dead and alive were examined to obtain mortality (two replications).

Setting [5] is: 0.5 ppm, 2 ml on 13 g artificial diet, ten fourth instar larvae, after six days, two replications.

`O=C(NC(=O)c1c(F)cccc1F)Nc1ccc(C(F)(F)F)cc1F` [(1), N-2,6-difluorobenzoyl-Nʹ-2-fluoro-4-trifluoromethylphenylurea]: the “Emergence inhibitory ratio (%)” value in assay [1] and in assay [2] was 100% each time. Further, the mortality at […] in assay [3] was 90%; in assay [4], 100%. Further, in assay [4] (setting [5]), the mortality at 0.5 ppm was determined as 80%.

Regarding `O=C(NC(=O)c1c(F)cccc1F)Nc1cc(F)c(C(F)(F)F)cc1F` [(2), N-2,6-difluorobenzoyl-Nʹ-2,5-difluoro-4-trifluoromethylphenylurea], the “Emergence inhibitory ratio (%)” value in assay [1] and in assay [2] was 100% in each case. The mortality at […] in assay [3] and in assay [4] was 100% in each case. Moreover, in assay [4] (setting [5]), the mortality at 0.5 ppm was found to be 100%.

As for `O=C(NC(=O)c1c(F)cc(F)cc1F)Nc1cc(F)c(C(F)(F)F)cc1F` [(3), N-2,4,6-trifluorobenzoyl-Nʹ-2,5-difluoro-4-trifluoromethylphenylurea], the figures for the “Emergence inhibitory ratio (%)” value in assay [1] and in assay [2] were 100% and 89%, respectively. In addition, the mortality at […] in assay [3] was determined as 90%; in assay [4] it was 100%. Moreover, the mortality at 0.5 ppm in assay [4] (setting [5]) stood at 100%.

As to `O=C(NC(=O)c1c(F)cccc1F)Nc1cc(Cl)c(C(F)(F)F)cc1F` [(4), N-2,6-difluorobenzoyl-Nʹ-5-chloro-2-fluoro-4-trifluoromethylphenylurea], the “Emergence inhibitory ratio (%)” value came to 100% in assay [1] and 89% in assay [2]. Besides, the mortality at […] in assay [3] and in assay [4] was 100% throughout. For the same compound, the mortality at 0.5 ppm in assay [4] (setting [5]) was found to be 70%.

In the case of `O=C(NC(=O)c1c(F)cc(F)cc1F)Nc1ccc(C(F)(F)F)cc1F` [(5), N-2,4,6-trifluorobenzoyl-Nʹ-2-fluoro-4-trifluoromethylphenylurea], the “Emergence inhibitory ratio (%)” value in assay [1] and in assay [2] was 100% in each case. Further, the mortality at […] in assay [3] and in assay [4] was 100% in each case. The mortality at 0.5 ppm in assay [4] (setting [5]) stood at 100%.

Take `O=C(NC(=O)c1c(F)cccc1F)Nc1cc(F)c(C(F)(F)C(F)(F)F)cc1F` [(6), N-2,6-difluorobenzoyl-Nʹ-2,5-difluoro-4-pentafluoroethylphenylurea]: the “Emergence inhibitory ratio (%)” value in assay [1] and in assay [2] was 100% throughout. Also, the mortality at […] in assay [3] amounted to 80%; in assay [4], 100%. For the same compound, the mortality at 0.5 ppm in assay [4] (setting [5]) stood at 100%.

In the case of `O=C(NC(=O)c1c(F)cccc1F)Nc1cc(F)c(C(F)(F)C(F)(F)C(F)(F)F)cc1F` [(7), N-2,6-difluorobenzoyl-Nʹ-2,5-difluoro-4-heptafluoropropylphenylurea], the “Emergence inhibitory ratio (%)” value in assay [1] and in assay [2] was 100% in each case. Moreover, the mortality at […] in assay [3] and in assay [4] was 100% each time. Also, the mortality at 0.5 ppm in assay [4] (setting [5]) amounted to 100%.

In the case of `O=C(NC(=O)c1c(F)cc(F)cc1F)Nc1cc(F)c(C(F)(F)C(F)(F)C(F)(F)F)cc1F` [(8), N-2,4,6-trifluorobenzoyl-Nʹ-2,5-difluoro-4-heptafluoropropylphenylurea], the “Emergence inhibitory ratio (%)” value in assay [1] came out at 100%; in assay [2], 73%. This compound also displayed a mortality at […] in assay [3] of 80%.

Turning to `O=C(NC(=O)c1c(F)cccc1F)Nc1ccc(C(F)(F)C(F)(F)F)cc1F` [(9), N-2,6-difluorobenzoyl-Nʹ-2-fluoro-4-pentafluoroethylphenylurea], the “Emergence inhibitory ratio (%)” value in assay [1] and in assay [2] was 100% in each case. Also, the mortality at […] in assay [3] was found to be 90%; in assay [4] it was 100%. Also, in assay [4] (setting [5]), the mortality at 0.5 ppm came out at 100%.

On to `O=C(NC(=O)c1c(F)cc(F)cc1F)Nc1ccc(C(F)(F)C(F)(F)F)cc1F` [(10), N-2,4,6-trifluorobenzoyl-Nʹ-2-fluoro-4-pentafluoroethylphenylurea], for which the “Emergence inhibitory ratio (%)” value in assay [1] and in assay [2] was 100% each time. The mortality at […] in assay [3] is 80%; in assay [4], 100%. Besides, the mortality at 0.5 ppm in assay [4] (setting [5]) turned out to be 100%.

As to `O=C(NC(=O)c1c(F)cccc1F)Nc1ccc(Cl)cc1` [(A), Diflubenzuron, reference compound], the “Emergence inhibitory ratio (%)” value in assay [2] came out at 11%. In addition, the mortality at 0.5 ppm in assay [4] was 5%.

Regarding `O=C(NC(=O)c1c(F)cccc1F)Nc1cc(Cl)c(F)c(Cl)c1F` [(C), Teflubenzuron, reference compound], in assay [2], the “Emergence inhibitory ratio (%)” value was 33%. For the same compound, the mortality at 0.5 ppm in assay [4] was 20%.

As for `CNC(=O)ON=C(C)SC` [(D), Methomyl, reference compound], the “Emergence inhibitory ratio (%)” value in assay [2] is listed as 0%. Besides, the mortality at […] was determined as 5% in assay [3] and 10% in assay [4]. Also, the mortality at 0.5 ppm in assay [4] (setting [5]) is 0%.

Regarding `O=C(NC(=O)c1c(F)cccc1F)Nc1ccc(Cl)cc1F` [(E), reference compound], in assay [2], the “Emergence inhibitory ratio (%)” value was found to be 33%. Besides, the mortality at […] turned out to be 35% in assay [3] and 45% in assay [4]. Further, in assay [4] (setting [5]), the mortality at 0.5 ppm is 10%.

In the case of `O=C(NC(=O)c1c(F)cccc1F)Nc1cc(Cl)cc(C(F)(F)F)c1Cl` [(F), reference compound], in assay [2], the “Emergence inhibitory ratio (%)” value is given as 22%. Moreover, the mortality at […] in assay [3] was 10%; in assay [4] it was 60%. In addition, the mortality at 0.5 ppm in assay [4] (setting [5]) came out at 20%.
